Reference: patent US12116597B2, “Autophagy as a therapeutic target for intracranial aneurysm” (THE BOARD OF REGENTS OF THE UNIVERSITY OF TEXAS SYSTEM, priority 2022, dated 2024)

Test system: Thsd1-deficient zebrafish
Experiment: Intracranial hemorrhage incidence in thsd1-MO zebrafish embryos treated with autophagy inhibitors
Format: in vivo
Settings: thsd1-MO injected zebrafish embryos; added to embryo water at 1 dpf for 24 hours; 3-MA 10 mM, wortmannin 50 nM, verteporfin 1 uM; FIG. 11
Procedure: Anti-sense morpholinos against thsd1, atg5 or talin was injected into one-cell stage zebrafish singly or in combination to silence the gene accordingly. At day 2 to day 3, embryos will be checked under regular optical microscope. Embryos with intracranial hemorrhages will be counted and imaged by Olympus microscope.
To test the hypothesis that autophagy inhibition could treat intracranial hemorrhage in-vivo 80-120 different zebrafish animals genetically engineered as described in Table 5 were treated with three distinct autophagy inhibitors, namely, 3-MA, wortmannin, or verteporfin. Control (DMSO) or other known autophagy inhibitors including 3-MA (10 mM), wortmannin (50 nM), and verteporfin (1 uM) were added to embryo water at 1 dpf for 24 hours. All embryos were injected by thsd1-MO and the hemorrhagic incidence was counted under microscope. For each injection, around 80-120 embryos were injected. *p<0.05, **p<0.01, n.s. means not significant.
After significant effort in contacting individuals and sequencing the families shown in FIG. 1A, the present disclosure first identified THSD1 as a gene associated with sub-cranial hemorrhage. In specific cases, a single codon substitution was identified as responsible for the phenotype L5F, R460W, E466G, G600E, P639L, T653I, or S775P. […]

| Molecule | intracranial hemorrhage (hemorrhagic incidence counted under microscope) |
| --- | --- |
| Cn1cnc(N)c2ncnc1-2 [3-MA, 3-Methyladenine] | rescued intracranial hemorrhage |
| Verteporfin | rescued intracranial hemorrhage |
